Measured values as given in patent US20250320233A1, “ARGINASE INHIBITOR AND PHARMACEUTICAL COMPOSITION COMPRISING THE SAME” (Daewoong Pharmaceutical Co., Ltd., priority 2022, published 2025).
Where a name gives a salt, the structure may show the parent alone.

These molecules were tested on Primary Peripheral Blood Mononuclear Cells (PBMC) (assay: PBMC activity evaluation test (T cell proliferation suppressed by synthetic arginase 1, CellTiter-Glo)). Conditions: PBMC with α-CD3/α-CD28 antibodies and synthetic arginase 1, 72 hours, CellTiter-Glo luminescence; read-out: EC50.
Type: cell-based
Procedure: A Primary Peripheral Blood Mononuclear Cells (PBMC) activity test was performed for the compound according to the present disclosure. […] To evaluate the proliferation of T cells, the CellTiter-Glo® Luminescent Cell Viability (Promega, Catalog #G7571) evaluation method was used, which can confirm the proliferation of cells by quantifying the ATP present in the cells. In addition to the compound according to the present disclosure, the compound CB-1158 (Numidargistat) was also tested together for comparison.
Specifically, α-CD3 antibody was coated on a clear 96-well microplate. 1×10^5 PBMC cells were placed in each well. RPMI media (10% FBS, 1% penicillin/streptomycin) was used as the cell culture medium. α-CD28 antibody and synthetic arginase 1 were added to each well. The compounds prepared in Examples were treated at different concentrations (2, 1, 0.5, 0.25, 0.125, 0.0625, 0.03125 μM). After incubating for 72 hours, 50 μL of cells from each well were transferred to a white 96-well microplate, and mixed with 50 μL of CellTiter-Glo® solution.
After performing the reaction at room temperature for 10 minutes in the state where light was blocked, the luminescence was measured. The measurement results for each compound were calculated using Excel, and the EC50 value was calculated using GraphPad Prism software.
`O=C(O)[C@]1(CCCCB(O)O)NC[C@@H]2NCC[C@@H]21` [Example 1, (3aS,4R,6aR)-4-(4-boronobutyl)octahydropyrrolo[3,4-b]pyrrole-4-carboxylic acid dihydrochloride] showed an EC50 of less than 100 nM.

Same assay, conditions: PBMC, 72 h
`C[C@H](N)C(=O)N1C[C@H](CCCB(O)O)[C@](N)(C(=O)O)C1` [CB-1158 (Numidargistat), Numidargistat, reference compound] showed an EC50 of 100 to 500 nM.

Each molecule was assayed against Arginase-1 (Homo sapiens (Human), UniProt P05089) (assay: Arginase inhibitory activity test). Conditions: Arginase-1, L-arginine substrate, absorbance at 450 nm.
Chain of Arginase-1 (P05089 whole entry, species assumed): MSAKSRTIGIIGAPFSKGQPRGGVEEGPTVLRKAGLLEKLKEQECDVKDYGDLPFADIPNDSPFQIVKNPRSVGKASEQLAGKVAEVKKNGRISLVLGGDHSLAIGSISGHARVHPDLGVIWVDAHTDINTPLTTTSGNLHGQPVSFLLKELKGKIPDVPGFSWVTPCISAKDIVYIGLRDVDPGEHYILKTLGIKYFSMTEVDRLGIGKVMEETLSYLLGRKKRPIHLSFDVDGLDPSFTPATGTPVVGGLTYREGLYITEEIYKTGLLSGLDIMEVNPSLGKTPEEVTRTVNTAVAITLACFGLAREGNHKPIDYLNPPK
Type: biochemical
Procedure: An arginase inhibitory activity test was conducted for the compound according to the present disclosure.
Specifically, all reagents required for evaluation were diluted in a reaction buffer (8 mM NAHPO4, 2 mM KH2PO4, pH 7.5, 137 mM NaCl, 2.7 mM KCl, and 0.05% Tween-20), and the compound was dissolved in DMSO and then diluted, and then diluted in the reaction buffer to conform to the desired concentration. 10 μL of the compound and 10 μL of 30 nM Arginase-1 were mixed in a transparent 96-well plate (SPL), and incubated at room temperature for 1 hour or more. After that, 10 μL of 15 mM L-arginine and 3 mM MnCl2 were added to the plate, and then reacted at room temperature for 30 minutes or more. Finally, 30 μL of a 1:1 mixture of reagent A (10 mM o-phthaldialdehyde, 0.4% polyoxyethylene lauryl ether, and 1.8M sulfuric acid in DW) and reagent B (1.3 mM primaquine diphosphate, 0.4% polyoxyethylene lauryl ether, and 3.6 M sulfuric acid in DW) was added to complete the enzyme reaction, and incubated at room temperature for 1 hour or more. The plate after incubation was measured for absorbance at 450 nm using a Flexstation3 multi-mode microplate reader (Molecular Devices).
The background control (BC) reading value was subtracted from all reading values to obtain the ΔOD for each reading value. The ΔOD of the enzyme control (EC) was set to the maximum value, and the % relative Arginase-1 activity of each compound (S) was calculated using the following Equation, and the IC50 value of the compound was determined using PRISM (GraphPad software).
`CNCCN1CC[C@H]2[C@@H]1CN[C@@]2(CCCCB(O)O)C(=O)O` [Example 28, (3aS,4R,6aR)-4-(4-boronobutyl)-1-(2-(methylamino)ethyl)octahydropyrrolo[2,3-c]pyrrole-4-carboxylic acid hydrochloride] gave an IC50 of 100 to 1000 nM. For `C[C@@H](N)C(=O)N1CC[C@H]2[C@@H]1CN[C@@]2(CCCCB(O)O)C(=O)O` [Example 9, (3aS,4R,6aR)-1-((R)-2-aminopropanoyl)-4-(4-boronobutyl)octahydropyrrolo[3,4-b]pyrrole-4-carboxylic acid dihydrochloride], the IC50 was greater than 1000 nM. Work on `CC(C)[C@H](N)C(=O)N1CC[C@H]2[C@@H]1CN[C@@]2(CCCCB(O)O)C(=O)O` [Example 6, (3aS,4R,6aR)-1-((S)-2-amino-3-methylbutanoyl)-4-(4-boronobutyl)octahydropyrrolo[3,4-b]pyrrole-4-carboxylic acid dihydrochloride] yielded an IC50 greater than 1000 nM. Work on `CN1CC[C@H]2[C@@H]1CN[C@@]2(CCCCB(O)O)C(=O)O` [Example 27, (3aS,4R,6aR)-4-(4-boronobutyl)-1-methyloctahydropyrrolo[3,4-b]pyrrole-4-carboxylic acid hydrochloride] yielded an IC50 of less than 100 nM. `C[C@H](N)C(=O)N1CC[C@H]2[C@@H]1CN[C@@]2(CCCCB(O)O)C(=O)O` [Example 2, (3aS,4R,6aR)-1-((S)-2-aminopropanoyl)-4-(4-boronobutyl)octahydropyrrolo[3,4-b]pyrrole-4-carboxylic acid dihydrochloride] showed an IC50 of 100 to 1000 nM. `CC(C)C[C@H](N)C(=O)N1CC[C@H]2[C@@H]1CN[C@@]2(CCCCB(O)O)C(=O)O` [Example 7, (3aS,4R,6aR)-1-((S)-2-amino-4-methylpentanoyl)-4-(4-boronobutyl)octahydropyrrolo[3,4-b]pyrrole-4-carboxylic acid dihydrochloride] was tested, and the IC50 was greater than 1000 nM. Molecule `C[C@H](O)[C@@H](N)C(=O)N1CC[C@H]2[C@@H]1CN[C@@]2(CCCCB(O)O)C(=O)O` [Example 5, (3aS,4R,6aR)-1-((2R,3S)-2-amino-3-hydroxybutanoyl)-4-(4-boronobutyl)octahydropyrrolo[3,4-b]pyrrole-4-carboxylic acid dihydrochloride] has an IC50 of 100 to 1000 nM. `O=C([C@@H]1CCCN1)N1CC[C@H]2[C@@H]1CN[C@@]2(CCCCB(O)O)C(=O)O` [Example 4, (3aS,4R,6aR)-4-(4-boronobutyl)-1-((S)-pyrrolidine-2-carbonyl)octahydropyrrolo[3,4-b]pyrrole-4-carboxylic acid dihydrochloride] gave an IC50 of 100 to 1000 nM. Work on `O=C(O)[C@]1(CCCCB(O)O)NC[C@@H]2NCC[C@@H]21` [Example 1, (3aS,4R,6aR)-4-(4-boronobutyl)octahydropyrrolo[3,4-b]pyrrole-4-carboxylic acid dihydrochloride] yielded an IC50 of less than 100 nM. In the case of `N[C@@H](Cc1ccccc1)C(=O)N1CC[C@H]2[C@@H]1CN[C@@]2(CCCCB(O)O)C(=O)O` [Example 3, (3aS,4R,6aR)-1-((S)-2-amino-3-phenylpropanoyl)-4-(4-boronobutyl)octahydropyrrolo[3,4-b]pyrrole-4-carboxylic acid dihydrochloride], the IC50 is reported as 100 to 1000 nM.
